{"source": "patent US8178506B2", "about": "“Oligomeric compounds and compositions for use in modulation of small non-coding RNAs” (Regulus Therapeutics Inc., priority 2003, dated 2012)", "key": {"[1]": {"test_system": "mir-143 binding sites", "assay": "pGL3-mir-143 sensor luciferase assay in HeLa cells", "assay_type": "cell-based, human", "details": "for Relative luciferase activity / luciferase expression (% lucif. only control): HeLa cells; for Relative luciferase activity: pGL3-mir-143 sensor with pCR3-pri-mir-143 (430); for luciferase expression (% lucif. only control): pGL3-mir-143 sensor", "excerpt": "In one embodiment, an expression system based on the pGL3-Control (Promega Corp., Madison Wis.) vector containing a CMV promoter controlling expression of a luciferase reporter sequence was used in transient transfections of HeLa cells with plasmids expressing miRNA or pri-miRNA mimics. To assess the ability of miRNA mimics to bind and regulate the expression of the luciferase reporter gene, two reporter plasmids were constructed: 1) a synthetic DNA fragment comprising two sites perfectly complementary to mir-143 were inserted into the pGL3-Control luciferase reporter vector, to create the pGL3-mir-143 sensor plasmid, and 2) a DNA fragment comprising the 3′-UTR of the LIM domain only 4 (LMO4) gene (predicted to be regulated by mir-143) was inserted into pGL3-Control to create pGL3-LMO4; this fragment was PCR-amplified using a primer beginning at position 1261 of the LMO4 sequence (GenBank Accession NM_006769.2, incorporated herein as SEQ ID: 809) and the downstream primer hybridizing to the poly-A tail. In each of these plasmids, the target site was placed downstream of the luciferase coding sequence and upstream of the polyadenylation signal in the 3′-UTR of the luciferase reporter vector. The unmodified pGL3-Control luciferase reporter vector was used as a control.\nHeLa cells were routinely cultured and passaged as described, and on the day before transfection with expression or reporter plasmids, the HeLa cells were seeded onto 24-well plates 50,000 cells/well. Cells were transfected according to standard published procedures with various combinations of plasmids using 2 μg Lipofectamine™ 2000 Reagent (Invitrogen) per μg of plasmid DNA, or, when transfecting oligomeric compounds, 1.25 μg of Lipofectamine™ 2000 Reagent per 100 nM oligonucleotide or double-stranded RNA. The luciferase signal in each well was normalized to the Renilla luciferase (RL) activity produced from a co-transfected plasmid, pRL-CMV, which was transfected at 0.5 μg per well. Cells were treated at various dosages (4 nM, 20 nM, and 100 nM) with the following oligomeric compound mimics: 1) “ds-mir-143,” 2) “ds-Control,” 3) “pCR3-pri-mir-143,” or 4) “pri-mir-control,” as described supra. In accordance with methods described in Example 12, supra, a luciferase assay was performed 48-hours after transfection. Briefly, cells were lysed in passive lysis buffer (PLB; Promega), and 20 ul of the lysate was then assayed for RL activity using a Dual Luciferase Assay kit (Promega) according to the manufacturer's protocol. The results below are an average of three trials and are presented as percent pGL3-Control luciferase expression normalized to pRL-CMV expression (RL).\nIn another embodiment, HeLa cells were transfected with 0.03 μg pGL3-mir-143 sensor plasmid and 0.01 μg pRL-CMV plasmid, and, in addition, (except those samples described below as “without mir-143 pri-miRNA,”) were also transfected with 0.01 μg of an expression plasmid designed to express a mir-143 pri-miRNA mimic comprising a larger 430-nt fragment of the mir-143 primary miRNA transcript, referred to as “pCR3-pri-mir-143 (430)” ([…]; SEQ ID NO: 871). […] To further evaluate the ability of the mir-143 pri-miRNA mimic to inhibit luciferase activity from the sensor plasmid, and to assess the ability of oligomeric compounds to interfere with the inhibition of pGL3-mir-143 sensor luciferase expression by the mir-143 pri-miRNA mimic, pGL3-mir-143 sensor-expressing HeLa cells treated with pCR3-pri-mir-143 (430) were additionally treated with varying concentrations (0-, 6.7- or 20 nM) of the following oligomeric compounds: 1) ISIS Number 327901 (SEQ ID NO: 319), a uniform 2′-MOE oligomeric compound targeting mir-143; 2) ISIS Number 342673 (SEQ ID NO: 758), a uniform 2′-MOE scrambled control; or 3) ISIS Number 327924 (SEQ ID NO: 342) targeting an unrelated miRNA (mir-129-2). […]"}, "[2]": {"test_system": "T47Dp53 cells", "assay": "Cell cycle assay in T47Dp53 cells", "assay_type": "cell-based, human", "details": "150 nM, 48 hours, relative to untreated control"}, "[3]": {"test_system": "T47D cells", "assay": "Caspase-3 activity assay (apoptosis) in T47D cells", "details": "T47D cells, 200 nM, 48 hours, relative to untreated control"}}, "note": "In the oligonucleotide strings, read from the 5' end, every base follows the letter of its sugar. An asterisk marks phosphorothioate; unmarked linkages are phosphodiester. Other units and linkages are bracketed, terminal groups are in braces. A string of capitals states the bases alone. e = 2'-O-(2-methoxyethyl) (MOE); [5mC] = 5-methylcytosine; d = 2'-deoxy (DNA)", "data": [{"substance": "327924 (antisense eG*e[5mC]*eA*eA*eG*e[5mC]*e[5mC]*e[5mC]*eA*eG*eA*e[5mC]*e[5mC]*eG*e[5mC]*eA*eA*eA*eA*eA*eG) [compound 327924]", "values": [{"measurement": "Relative luciferase activity", "setting": "[1]; 6.7 nM", "result": 0.8}, {"measurement": "Relative luciferase activity", "setting": "[1]; 20 nM", "result": 1.2}]}, {"substance": "ds-mir-143: double-stranded RNA of ISIS 342199 hybridized to its perfect complement ISIS 342200 (sense UGAGAUGAAGCACUGUAGCUCA; antisense UGAGCUACAGUGCUUCAUCUCA; RNA, backbone not given here)", "values": [{"measurement": "luciferase activity from the pGL3-mir-143 sensor plasmid", "setting": "[1]; HeLa, 4 nM, 20 nM and 100 nM, 48 hours", "result": "inhibited luciferase activity from the pGL3-mir-143 sensor plasmid in a dose-dependent manner"}, {"measurement": "luciferase expression (% lucif. only control)", "setting": "[1]; 4 nM, 48 hours", "result": 14.5, "unit": "% lucif. only control"}, {"measurement": "luciferase expression (% lucif. only control)", "setting": "[1]; 20 nM, 48 hours", "result": 8.0, "unit": "% lucif. only control"}, {"measurement": "luciferase expression (% lucif. only control)", "setting": "[1]; 100 nM, 48 hours", "result": 7.1, "unit": "% lucif. only control"}]}, {"substance": "328403 (antisense eA*eG*eG*e[5mC]*e[5mC]*dT*dA*dT*dT*d[5mC]*d[5mC]*dT*dG*dT*dA*eG*e[5mC]*eA*eA*eA) [compound 328403]", "values": [{"measurement": "% cells in cell cycle phase G1", "setting": "[2]", "result": 114, "unit": "%"}, {"measurement": "% cells in cell cycle phase G2/M", "setting": "[2]", "result": 94, "unit": "%"}, {"measurement": "% cells in cell cycle phase S", "setting": "[2]", "result": 87, "unit": "%"}, {"measurement": "% cells in cell cycle phase aneuploid", "setting": "[2]", "result": 89, "unit": "%"}, {"measurement": "% cells in cell cycle phase subG1", "setting": "[2]", "result": 140, "unit": "%"}, {"measurement": "Fold Increase over UTC (caspase activity)", "setting": "[3]", "result": 1.0}]}]}
